Blank lines part the entries; values can stand above or below the molecule they belong to. The source made the active and inactive calls.
Assays:
Aminopeptidase N = molecular target: T1, Aminopeptidase N (Plasmodium falciparum FcB1/Columbia, UniProt O96935); test: P. falciparum M1AAP inhibitors, biochemical, fluorogenic H-Leu-NHMec substrate, 1536-well (AID 1445); design: species or system Plasmodium falciparum 3D7, 3D7
T1 sequence (O96935 whole entry): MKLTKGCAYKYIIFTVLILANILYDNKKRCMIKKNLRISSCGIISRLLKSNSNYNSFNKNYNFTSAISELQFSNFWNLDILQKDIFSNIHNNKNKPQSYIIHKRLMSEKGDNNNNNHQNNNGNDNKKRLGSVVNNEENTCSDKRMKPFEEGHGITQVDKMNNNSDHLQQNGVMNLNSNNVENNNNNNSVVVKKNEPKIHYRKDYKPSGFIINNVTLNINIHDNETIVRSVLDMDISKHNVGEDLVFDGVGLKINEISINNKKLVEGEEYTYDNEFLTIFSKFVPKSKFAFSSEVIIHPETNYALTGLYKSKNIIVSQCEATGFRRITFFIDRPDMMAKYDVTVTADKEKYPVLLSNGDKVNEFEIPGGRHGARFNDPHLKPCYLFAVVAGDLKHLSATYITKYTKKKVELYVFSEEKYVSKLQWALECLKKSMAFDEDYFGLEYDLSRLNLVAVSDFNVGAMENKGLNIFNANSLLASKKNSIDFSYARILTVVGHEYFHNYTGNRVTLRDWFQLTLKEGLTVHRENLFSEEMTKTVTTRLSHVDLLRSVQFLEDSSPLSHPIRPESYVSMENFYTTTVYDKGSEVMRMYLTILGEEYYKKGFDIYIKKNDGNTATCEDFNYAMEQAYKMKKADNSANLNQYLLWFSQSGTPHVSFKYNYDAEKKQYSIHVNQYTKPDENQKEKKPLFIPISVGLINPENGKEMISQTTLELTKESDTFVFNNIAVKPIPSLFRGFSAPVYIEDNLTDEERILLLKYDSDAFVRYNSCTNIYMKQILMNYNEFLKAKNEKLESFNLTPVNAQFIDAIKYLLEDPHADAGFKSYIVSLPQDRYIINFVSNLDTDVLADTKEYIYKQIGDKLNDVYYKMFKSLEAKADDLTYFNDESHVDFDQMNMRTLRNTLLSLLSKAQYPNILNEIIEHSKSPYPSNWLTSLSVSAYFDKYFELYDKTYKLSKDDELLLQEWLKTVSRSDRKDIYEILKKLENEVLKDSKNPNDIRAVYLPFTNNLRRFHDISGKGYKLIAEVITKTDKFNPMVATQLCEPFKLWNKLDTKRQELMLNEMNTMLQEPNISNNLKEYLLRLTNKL

[1] = molecular target: T2, Voltage-gated N-type calcium channel alpha-1B subunit/Amyloid beta A4 precursor protein-binding family A member 1 (Homo sapiens, UniProt Q00975+Q02410); assay type: protein assay
T2 sequence (Q00975 whole entry): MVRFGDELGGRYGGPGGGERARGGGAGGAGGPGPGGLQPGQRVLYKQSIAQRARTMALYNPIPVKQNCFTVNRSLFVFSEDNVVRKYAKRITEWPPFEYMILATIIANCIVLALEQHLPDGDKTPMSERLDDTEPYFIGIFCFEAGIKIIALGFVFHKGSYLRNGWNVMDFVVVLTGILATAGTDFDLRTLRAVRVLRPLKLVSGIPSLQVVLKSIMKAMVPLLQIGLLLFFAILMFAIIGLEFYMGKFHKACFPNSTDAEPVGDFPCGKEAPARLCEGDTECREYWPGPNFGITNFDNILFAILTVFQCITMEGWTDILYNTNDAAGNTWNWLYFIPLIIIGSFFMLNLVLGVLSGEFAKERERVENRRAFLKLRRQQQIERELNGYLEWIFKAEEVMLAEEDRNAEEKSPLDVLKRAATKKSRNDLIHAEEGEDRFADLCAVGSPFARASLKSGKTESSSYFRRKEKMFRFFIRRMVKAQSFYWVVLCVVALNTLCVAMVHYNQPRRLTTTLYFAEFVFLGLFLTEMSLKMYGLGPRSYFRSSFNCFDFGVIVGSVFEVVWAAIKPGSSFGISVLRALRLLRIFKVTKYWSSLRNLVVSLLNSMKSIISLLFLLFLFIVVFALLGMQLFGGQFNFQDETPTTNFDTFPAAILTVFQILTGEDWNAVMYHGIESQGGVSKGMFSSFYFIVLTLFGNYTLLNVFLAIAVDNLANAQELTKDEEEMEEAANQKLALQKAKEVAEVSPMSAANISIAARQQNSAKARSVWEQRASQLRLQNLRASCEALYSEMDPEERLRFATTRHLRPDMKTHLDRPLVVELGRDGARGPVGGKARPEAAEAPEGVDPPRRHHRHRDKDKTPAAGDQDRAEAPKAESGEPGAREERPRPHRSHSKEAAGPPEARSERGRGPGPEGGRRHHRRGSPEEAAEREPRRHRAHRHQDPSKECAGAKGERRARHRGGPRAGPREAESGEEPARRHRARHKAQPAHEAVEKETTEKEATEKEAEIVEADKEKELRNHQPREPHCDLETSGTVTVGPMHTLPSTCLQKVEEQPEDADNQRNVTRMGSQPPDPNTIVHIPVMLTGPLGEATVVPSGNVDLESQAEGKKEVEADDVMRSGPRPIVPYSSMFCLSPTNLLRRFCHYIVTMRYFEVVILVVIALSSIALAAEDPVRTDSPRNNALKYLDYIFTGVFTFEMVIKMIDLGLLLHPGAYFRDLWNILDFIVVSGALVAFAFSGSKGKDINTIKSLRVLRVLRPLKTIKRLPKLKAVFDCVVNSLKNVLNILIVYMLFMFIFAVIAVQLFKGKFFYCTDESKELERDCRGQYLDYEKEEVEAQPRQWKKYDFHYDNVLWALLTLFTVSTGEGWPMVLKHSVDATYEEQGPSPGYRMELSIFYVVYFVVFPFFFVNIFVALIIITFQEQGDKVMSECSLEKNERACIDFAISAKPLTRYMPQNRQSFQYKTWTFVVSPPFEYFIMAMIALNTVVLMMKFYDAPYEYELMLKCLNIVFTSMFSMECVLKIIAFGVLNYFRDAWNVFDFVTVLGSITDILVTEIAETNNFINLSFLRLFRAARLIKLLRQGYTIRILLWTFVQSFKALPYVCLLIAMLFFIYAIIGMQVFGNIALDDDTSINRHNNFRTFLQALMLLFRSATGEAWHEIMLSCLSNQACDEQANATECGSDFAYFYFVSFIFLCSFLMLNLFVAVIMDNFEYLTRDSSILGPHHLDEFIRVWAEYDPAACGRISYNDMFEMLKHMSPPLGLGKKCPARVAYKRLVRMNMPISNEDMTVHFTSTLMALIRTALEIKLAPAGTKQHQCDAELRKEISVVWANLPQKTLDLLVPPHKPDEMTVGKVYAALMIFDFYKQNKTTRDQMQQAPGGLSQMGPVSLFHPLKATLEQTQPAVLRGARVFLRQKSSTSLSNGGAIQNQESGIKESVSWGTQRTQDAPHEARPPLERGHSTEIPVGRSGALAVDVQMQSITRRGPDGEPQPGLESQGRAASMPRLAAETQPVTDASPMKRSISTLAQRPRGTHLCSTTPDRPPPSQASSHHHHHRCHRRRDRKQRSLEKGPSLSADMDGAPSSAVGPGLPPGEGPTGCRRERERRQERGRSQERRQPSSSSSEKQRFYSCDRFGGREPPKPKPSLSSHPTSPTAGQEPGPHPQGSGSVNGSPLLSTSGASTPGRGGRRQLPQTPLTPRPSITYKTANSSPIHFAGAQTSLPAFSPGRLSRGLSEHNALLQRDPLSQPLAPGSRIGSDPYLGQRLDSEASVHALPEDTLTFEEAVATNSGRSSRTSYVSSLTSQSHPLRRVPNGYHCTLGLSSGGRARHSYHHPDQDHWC
T2 sequence (Q02410 whole entry): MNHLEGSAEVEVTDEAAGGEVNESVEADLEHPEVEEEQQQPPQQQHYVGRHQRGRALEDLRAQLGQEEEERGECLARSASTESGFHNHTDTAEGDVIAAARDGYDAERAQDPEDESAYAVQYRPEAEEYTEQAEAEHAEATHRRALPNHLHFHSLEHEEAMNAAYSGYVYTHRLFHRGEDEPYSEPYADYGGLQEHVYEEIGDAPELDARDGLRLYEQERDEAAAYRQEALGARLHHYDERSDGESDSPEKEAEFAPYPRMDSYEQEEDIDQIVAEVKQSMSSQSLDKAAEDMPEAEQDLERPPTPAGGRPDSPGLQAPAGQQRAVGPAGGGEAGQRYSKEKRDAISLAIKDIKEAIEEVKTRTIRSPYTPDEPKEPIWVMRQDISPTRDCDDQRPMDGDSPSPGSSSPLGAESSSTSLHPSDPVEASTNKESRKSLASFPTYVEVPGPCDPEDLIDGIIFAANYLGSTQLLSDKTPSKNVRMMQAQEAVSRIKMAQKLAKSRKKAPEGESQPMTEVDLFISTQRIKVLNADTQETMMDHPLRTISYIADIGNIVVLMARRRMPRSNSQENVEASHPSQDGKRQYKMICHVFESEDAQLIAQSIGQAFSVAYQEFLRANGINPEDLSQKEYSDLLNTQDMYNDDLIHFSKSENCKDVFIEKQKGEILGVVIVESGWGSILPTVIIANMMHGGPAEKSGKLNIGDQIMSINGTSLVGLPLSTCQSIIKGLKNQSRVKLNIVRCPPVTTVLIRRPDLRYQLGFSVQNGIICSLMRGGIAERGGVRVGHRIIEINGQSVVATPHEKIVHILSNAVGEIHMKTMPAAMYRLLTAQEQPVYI

[2] = molecular target: T2, Voltage-gated N-type calcium channel alpha-1B subunit/Amyloid beta A4 precursor protein-binding family A member 1; assay type: protein assay; remark: listed apart in the source
Salmon testes DNA = test: DNA intercalators displacing acridine orange, dose response, artefact control for KSHV LANA DNA-binding inhibitor project, biochemical, fluorescence polarization, cherry-picked samples, set 2 (AID 504727); design: species or system Salmonidae
[3] = molecular target: T3, 1-phosphatidylinositol 4,5-bisphosphate phosphodiesterase beta-3 (Homo sapiens, UniProt Q01970); test: Fluorescence-based biochemical high throughput dose response assay to identify inhibitors of phospholipase C isozymes (PLC-B3).
T3 sequence (Q01970 whole entry): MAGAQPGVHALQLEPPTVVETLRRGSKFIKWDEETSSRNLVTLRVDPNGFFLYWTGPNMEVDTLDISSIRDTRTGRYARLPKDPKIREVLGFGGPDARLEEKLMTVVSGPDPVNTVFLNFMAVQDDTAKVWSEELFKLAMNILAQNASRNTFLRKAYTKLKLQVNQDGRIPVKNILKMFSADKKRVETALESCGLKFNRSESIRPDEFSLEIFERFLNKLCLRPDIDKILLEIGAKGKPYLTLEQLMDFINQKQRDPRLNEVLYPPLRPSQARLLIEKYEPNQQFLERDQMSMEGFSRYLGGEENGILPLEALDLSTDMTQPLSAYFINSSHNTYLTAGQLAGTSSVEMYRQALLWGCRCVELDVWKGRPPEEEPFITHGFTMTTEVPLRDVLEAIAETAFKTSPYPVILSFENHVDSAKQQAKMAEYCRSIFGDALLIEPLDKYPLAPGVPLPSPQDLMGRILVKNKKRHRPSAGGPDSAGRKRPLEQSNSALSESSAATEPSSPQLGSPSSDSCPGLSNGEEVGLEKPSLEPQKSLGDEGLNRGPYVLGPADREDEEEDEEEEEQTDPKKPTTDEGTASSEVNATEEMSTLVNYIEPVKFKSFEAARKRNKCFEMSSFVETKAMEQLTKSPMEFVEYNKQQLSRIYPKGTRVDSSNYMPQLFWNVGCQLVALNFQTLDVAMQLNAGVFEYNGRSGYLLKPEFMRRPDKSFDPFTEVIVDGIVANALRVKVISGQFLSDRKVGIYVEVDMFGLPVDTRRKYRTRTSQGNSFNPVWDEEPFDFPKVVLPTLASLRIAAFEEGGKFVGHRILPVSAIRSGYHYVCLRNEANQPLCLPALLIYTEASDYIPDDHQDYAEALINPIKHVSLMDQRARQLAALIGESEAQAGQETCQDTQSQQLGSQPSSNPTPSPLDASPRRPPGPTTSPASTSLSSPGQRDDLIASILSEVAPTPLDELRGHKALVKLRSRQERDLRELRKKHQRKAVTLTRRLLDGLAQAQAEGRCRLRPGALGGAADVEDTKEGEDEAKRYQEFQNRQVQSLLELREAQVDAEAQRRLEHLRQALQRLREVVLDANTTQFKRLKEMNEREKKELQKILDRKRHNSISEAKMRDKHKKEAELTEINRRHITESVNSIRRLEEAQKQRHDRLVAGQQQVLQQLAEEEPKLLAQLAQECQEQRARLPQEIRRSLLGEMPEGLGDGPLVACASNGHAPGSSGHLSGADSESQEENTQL

[4] = molecular target: Polyadenylate-binding protein 1 (Homo sapiens, UniProt P11940); test: PABP1 MLLE–PAM2 interaction inhibitors, dose response, miRNA deadenylation inhibitor project, biochemical, fluorescence polarization, Cy5-PAM2 peptide, secondary (AID 602260); assay type: functional; details: read-out: IC50_Mean
[5] = molecular target: Histone-lysine N-methyltransferase NSD2 (Homo sapiens, UniProt O96028); assay type: biochemical
Sequence of Histone-lysine N-methyltransferase NSD2 (O96028 whole entry): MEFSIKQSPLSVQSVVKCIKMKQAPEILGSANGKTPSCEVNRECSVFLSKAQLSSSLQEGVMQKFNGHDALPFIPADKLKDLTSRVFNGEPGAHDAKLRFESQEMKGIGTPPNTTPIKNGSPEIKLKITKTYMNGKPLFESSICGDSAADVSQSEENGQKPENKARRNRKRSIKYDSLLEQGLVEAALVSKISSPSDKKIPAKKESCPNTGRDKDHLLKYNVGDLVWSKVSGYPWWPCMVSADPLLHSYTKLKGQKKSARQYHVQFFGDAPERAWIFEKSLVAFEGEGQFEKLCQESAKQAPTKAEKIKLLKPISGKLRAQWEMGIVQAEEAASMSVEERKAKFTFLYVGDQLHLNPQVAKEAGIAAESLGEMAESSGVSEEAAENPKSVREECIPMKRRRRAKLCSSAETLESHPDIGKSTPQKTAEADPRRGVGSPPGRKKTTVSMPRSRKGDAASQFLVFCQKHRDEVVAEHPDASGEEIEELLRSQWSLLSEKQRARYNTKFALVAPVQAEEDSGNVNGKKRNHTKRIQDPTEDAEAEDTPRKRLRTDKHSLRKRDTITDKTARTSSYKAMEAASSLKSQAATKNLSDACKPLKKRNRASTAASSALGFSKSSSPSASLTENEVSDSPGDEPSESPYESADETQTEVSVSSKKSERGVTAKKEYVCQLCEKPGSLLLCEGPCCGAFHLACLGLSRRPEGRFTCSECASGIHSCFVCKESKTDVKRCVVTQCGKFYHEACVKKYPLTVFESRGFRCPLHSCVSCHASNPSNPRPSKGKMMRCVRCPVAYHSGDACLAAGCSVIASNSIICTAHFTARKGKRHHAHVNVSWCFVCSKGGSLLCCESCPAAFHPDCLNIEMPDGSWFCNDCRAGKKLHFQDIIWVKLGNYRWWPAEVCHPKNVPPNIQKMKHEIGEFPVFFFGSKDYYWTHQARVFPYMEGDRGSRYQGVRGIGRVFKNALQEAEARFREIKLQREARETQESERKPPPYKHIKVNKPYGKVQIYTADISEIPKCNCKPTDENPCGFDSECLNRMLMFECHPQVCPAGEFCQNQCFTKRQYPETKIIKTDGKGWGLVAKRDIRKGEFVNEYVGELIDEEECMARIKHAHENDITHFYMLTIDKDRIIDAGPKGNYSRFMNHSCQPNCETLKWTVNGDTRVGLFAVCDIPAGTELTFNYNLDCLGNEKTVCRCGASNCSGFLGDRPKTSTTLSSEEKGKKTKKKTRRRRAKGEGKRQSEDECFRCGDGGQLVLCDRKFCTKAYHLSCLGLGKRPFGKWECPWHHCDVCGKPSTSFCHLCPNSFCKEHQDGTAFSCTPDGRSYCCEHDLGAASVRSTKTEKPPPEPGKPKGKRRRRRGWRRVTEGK

SMILES: Cc1cc(C)c(S(=O)(=O)Nc2cc(SCC(=O)O)c(O)c3ccccc23)cc1C
IC50 (Aminopeptidase N): 48.5 µM (active)

SMILES: O=C(O)c1cc(N2N=C(C(F)(F)F)/C(=C/C=C/c3ccco3)C2=O)ccc1Cl
IC50 [1]: 24.6 µM (active)
IC50 [2]: 11.7 µM (active)
AC50 (Salmon testes DNA): 126 µM (active)

IC50 [3]: > 122 µM (inactive)
SMILES: O=C(/C=C/c1ccco1)NC(=S)Nc1cccc(C(=O)O)c1

SMILES: CNCc1ccccc1Sc1ccc(O)c(O)c1
IC50 [4]: > 66 µM (inactive)
AC50 [5]: > 20 µM (inactive)

From ChEMBL document CHEMBL1201862, “PubChem BioAssay data set” (2004)
